Data as given in US11767323B2, “Tricyclic pyridone compounds as JAK2 V617F inhibitors” (Incyte Corporation, priority 2020, dated 2023).

Key:
[1] = molecular target: pseudo-kinase domain (JH2, amino-acids 536-812) of human V617F mutant JAK2 (Homo sapiens (Human), UniProt O60674, F794H/V617F/W659A/W777A); experiment: JAK2 LanthaScreen JH2-V617F Binding Assay; settings: JAK2 JH2-V617F 0.26 nM, 50 nM tracer, 1 hour at 25° C.; read-out: JH2 BIND V617F IC50
How it was run: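 This is a TR-FRET tracer-displacement format with a 1 h, 25 °C incubation. It combined 0.26 nM baculovirus-expressed biotinylated JH2-V617F, 50 nM fluorescent JAK2-JH2 tracer and 0.25 nM streptavidin-Tb cryptate in 50 mM Tris pH 7.5, 10 mM MgCl2, 5 mM DTT. Background came from 2 mM ATP, and IC50 values were from four-parameter dose-response fits.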

[2] = molecular target: catalytic domain (JH1, amino acids 808-1132) of human JAK2 (Homo sapiens (Human), UniProt O60674); experiment: JAK2 HTRF Enzyme Activity Assay; assay type: biochemical; settings: JAK2 0.015 nM, ATP (30 μM or 1 mM), 60 minutes at 25° C.
Sequence of catalytic domain (JH1, amino acids 808-1132) of human JAK2 (O60674 808-1132): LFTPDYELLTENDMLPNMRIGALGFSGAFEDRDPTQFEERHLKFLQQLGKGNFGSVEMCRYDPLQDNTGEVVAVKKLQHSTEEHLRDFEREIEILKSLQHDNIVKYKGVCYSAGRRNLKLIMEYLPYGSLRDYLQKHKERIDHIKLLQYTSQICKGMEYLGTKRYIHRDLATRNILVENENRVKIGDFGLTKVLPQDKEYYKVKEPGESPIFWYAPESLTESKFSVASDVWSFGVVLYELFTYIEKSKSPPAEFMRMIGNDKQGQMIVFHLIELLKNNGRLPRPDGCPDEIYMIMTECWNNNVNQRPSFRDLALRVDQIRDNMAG

[3] = molecular target: catalytic domain (JH1, amino acids 826-1132) of human JAK2 (Homo sapiens (Human), UniProt O60674); experiment: JAK2 LanthaScreen JH1 Binding Assay; settings: JAK2 JH1 1.5 nM, 50 nM tracer, 2 hours at 25° C.; read-out: JH1 BIND IC50
Sequence of catalytic domain (JH1, amino acids 826-1132) of human JAK2 (O60674 826-1132): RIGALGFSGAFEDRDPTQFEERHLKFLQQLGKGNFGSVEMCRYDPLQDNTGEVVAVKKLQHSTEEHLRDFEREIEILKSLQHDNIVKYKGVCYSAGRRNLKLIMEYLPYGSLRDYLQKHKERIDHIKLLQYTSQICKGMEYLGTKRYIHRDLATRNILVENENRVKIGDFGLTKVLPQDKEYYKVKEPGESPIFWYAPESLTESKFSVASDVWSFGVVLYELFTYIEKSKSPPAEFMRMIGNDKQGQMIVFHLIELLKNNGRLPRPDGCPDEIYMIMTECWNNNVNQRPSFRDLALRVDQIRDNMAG
How it was run: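 Reaction held 1.5 nM biotinylated FLAG-JAK2 JH1, 50 nM tracer and 0.5 nM streptavidin-Tb in pH 7.5 Tris buffer; 2 mM ATP defined nonspecific binding.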

[4] = molecular target: pseudo-kinase domain (JH2, amino-acids 536-812) of human Wild Type JAK2 (Homo sapiens (Human), UniProt O60674, F794H/W659A/W777A); experiment: JAK2 LanthaScreen JH2-WT Binding Assay; settings: JAK2 JH2-WT 0.145 nM, 50 nM tracer, 1 hour at 25° C.; read-out: JH2 BIND WT IC50
Sequence of pseudo-kinase domain (JH2, amino-acids 536-812) of human Wild Type JAK2 (O60674 536-812 W659A/W777A/F794H): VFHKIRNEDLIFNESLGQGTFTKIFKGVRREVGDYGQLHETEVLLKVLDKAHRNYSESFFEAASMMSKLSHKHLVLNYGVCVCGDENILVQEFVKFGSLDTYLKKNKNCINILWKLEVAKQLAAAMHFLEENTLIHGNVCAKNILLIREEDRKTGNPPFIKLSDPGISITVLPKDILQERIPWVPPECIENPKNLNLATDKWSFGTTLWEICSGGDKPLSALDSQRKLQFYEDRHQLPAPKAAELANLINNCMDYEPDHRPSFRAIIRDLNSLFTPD
How it was run: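 Biotinylated His-Avi-tagged JH2 construct carrying W659A/W777A/F794H surface mutations, 0.145 nM, incubated 1 h at 25° C with compound, 50 nM fluorescent JH2 tracer and 0.25 nM streptavidin-Tb in pH 7.5 Tris buffer. Non-specific binding defined with 2 mM ATP. TR-FRET read; IC50 from four-parameter fit.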

Sequence of pseudo-kinase domain (JH2, amino-acids 536-812) of human V617F mutant JAK2 (O60674 536-812 V617F/W659A/W777A/F794H): as the sequence (O60674 536-812 W659A/W777A/F794H) above, with V82F counted along it

Compound | IC50 [1] [nM] | IC50 [2] [nM] | IC50 [3] [nM] | IC50 [4] [nM]
CN(C)C(=O)c1ccc(-c2c(-c3cnn(C)c3)[nH]c3ncc4c(cc(NC5CCC(CC#N)CC5)c(=O)n4C)c23)cc1 (stereo not shown) [Example 38, 4-(8-((4-(cyanomethyl)cyclohexyl)amino)-6-methyl-2-(1-methyl-1H-pyrazol-4-yl)-7-oxo-6,7-dihydro-3H-pyrrolo[3,2-f][1,7]naphthyridin-1-yl)-N,N-dimethylbenzamide] | ≤ 100 | ≤ 100 | 100 to 500 | ≤ 100
CN(C)C(=O)c1ccc(-c2c(-c3cnn(C)c3)[nH]c3ncc4c(cc(N5CCC(S(C)(=O)=O)CC5)c(=O)n4C)c23)cc1 [Example 39, N,N-dimethyl-4-(6-methyl-2-(1-methyl-1H-pyrazol-4-yl)-8-(4-(methylsulfonyl)piperidin-1-yl)-7-oxo-6,7-dihydro-3H-pyrrolo[3,2-f][1,7]naphthyridin-1-yl)benzamide] | ≤ 100 | 100 to 500 | 100 to 500 | ≤ 100
COCCS(=O)(=O)C1CCN(c2cc3c4c(-c5ccc(C(=O)N(C)C)cc5)c(-c5cnn(C)c5)[nH]c4ncc3n(C)c2=O)CC1 [Example 40, 4-(8-(4-((2-Methoxyethyl)sulfonyl)piperidin-1-yl)-6-methyl-2-(1-methyl-1H-pyrazol-4-yl)-7-oxo-6,7-dihydro-3H-pyrrolo[3,2-f][1,7]naphthyridin-1-yl)-N,N-dimethylbenzamide] | 100 to 500 | 1000 to 10000 | 1000 to 10000 | 100 to 500
CN(C)C(=O)c1ccc(-c2c(-c3cnn(C)c3)[nH]c3ncc4c(cc(N5CCC6(CCOC6)CC5)c(=O)n4C)c23)cc1 [Example 41, N,N-dimethyl-4-(6-methyl-2-(1-methyl-1H-pyrazol-4-yl)-7-oxo-8-(2-oxa-8-azaspiro[4.5]decan-8-yl)-6,7-dihydro-3H-pyrrolo[3,2-f][1,7]naphthyridin-1-yl)benzamide] | 500 to 1000 | 1000 to 10000 | 1000 to 10000 | 100 to 500
COc1ccc(-c2c(-c3cnn(C)c3)[nH]c3ncc4c(cc(C(=O)N(C)C)c(=O)n4C)c23)cc1 [Example 42, 1-(4-Methoxyphenyl)-N,N,6-trimethyl-2-(1-methyl-1H-pyrazol-4-yl)-7-oxo-6,7-dihydro-3H-pyrrolo[3,2-f][1,7]naphthyridine-8-carboxamide] | ≤ 100 | 1000 to 10000 | 1000 to 10000 | ≤ 100
CN(C)C(=O)c1cc2c3c(-c4ccc5c(cnn5C)c4)c(-c4cnn(C)c4)[nH]c3ncc2n(C)c1=O [Example 43, N,N,6-trimethyl-1-(1-methyl-1H-indazol-5-yl)-2-(1-methyl-1H-pyrazol-4-yl)-7-oxo-6,7-dihydro-3H-pyrrolo[3,2-f][1,7]naphthyridine-8-carboxamide] | ≤ 100 | 1000 to 10000 | 1000 to 10000 | ≤ 100
CN(C)C(=O)c1cc2c3c(-c4ccc(C5(C#N)CC5)cc4)c(-c4cnn(C)c4)[nH]c3ncc2n(C)c1=O [Example 44, 1-(4-(1-cyanocyclopropyl)phenyl)-N,N,6-trimethyl-2-(1-methyl-1H-pyrazol-4-yl)-7-oxo-6,7-dihydro-3H-pyrrolo[3,2-f][1,7]naphthyridine-8-carboxamide] | ≤ 100 | 1000 to 10000 | 1000 to 10000 | ≤ 100
